Test results reported in ChEMBL document CHEMBL1671717, “In vitro potentiation of carbapenems with ME1071, a novel metallo-beta-lactamase inhibitor, against metallo-beta-lactamase- producing Pseudomonas aeruginosa clinical isolates” (Antimicrob Agents Chemother, 2010).

Experiments:
[1] = biological target: Beta-lactamase VIM-2 (Pseudomonas aeruginosa, UniProt Q9K2N0)
Description: Inhibition of Pseudomonas aeruginosa beta-lactamase VIM-2 assessed as hydrolysis of nitrocefin by UV spectrophotometric analysis

[2] = biological target: Beta-lactamase (Pseudomonas aeruginosa, UniProt Q79MP6)
Sequence of Beta-lactamase (Q79MP6 whole entry): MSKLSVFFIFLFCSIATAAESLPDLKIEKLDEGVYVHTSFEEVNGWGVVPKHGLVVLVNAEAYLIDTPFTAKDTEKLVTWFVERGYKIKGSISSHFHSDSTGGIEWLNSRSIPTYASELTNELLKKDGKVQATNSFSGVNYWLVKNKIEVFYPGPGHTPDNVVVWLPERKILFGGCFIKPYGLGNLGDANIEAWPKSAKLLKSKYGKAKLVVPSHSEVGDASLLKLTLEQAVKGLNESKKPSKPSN
Description: Inhibition of Pseudomonas aeruginosa beta-lactamase IMP-1 assessed as hydrolysis of nitrocefin by UV spectrophotometric analysis

| SMILES | Ki [1] [nM] | Ki [2] [nM] |
| --- | --- | --- |
| CC/C(C(=O)O)=C(\CC)C(=O)O | 120000 | – |
| O=C(O)CCS [MERCAPTOPROPIONIC ACID] | – | 180 |
| COC1OC(C)=Cc2oc3cc(O)c(O)c(C(=O)O)c3c(=O)c21 (stereo not given) | – | 180 |
| O=C(O)CS [THIOGLYCOLIC ACID] | – | 180 |
| C[C@@H](O)[C@H]1C(=O)N2C(C(=O)O)=C(Sc3cc4ccccc4s3)[C@H](C)[C@H]12 | – | 180 |
